The results in this text go back to paper PMC8050608 (The Korean Journal of Physiology & Pharmacology : …, 2021).

In test [1] the target is T1, ORAI1 (Homo sapiens, UniProt Q96D31). The format is cell-based. The note with it: HEK-293T, read-out: % inhibition at 100 μM.
Test [2] deals with T1, ORAI1. Type of test: cell-based. To be noted: HEK-293T, read-out: % inhibition at 100 μM. This is another data set of the same source.

Like-named read-outs stand apart in the source and are kept apart here.

T1 sequence (Q13586 23-685): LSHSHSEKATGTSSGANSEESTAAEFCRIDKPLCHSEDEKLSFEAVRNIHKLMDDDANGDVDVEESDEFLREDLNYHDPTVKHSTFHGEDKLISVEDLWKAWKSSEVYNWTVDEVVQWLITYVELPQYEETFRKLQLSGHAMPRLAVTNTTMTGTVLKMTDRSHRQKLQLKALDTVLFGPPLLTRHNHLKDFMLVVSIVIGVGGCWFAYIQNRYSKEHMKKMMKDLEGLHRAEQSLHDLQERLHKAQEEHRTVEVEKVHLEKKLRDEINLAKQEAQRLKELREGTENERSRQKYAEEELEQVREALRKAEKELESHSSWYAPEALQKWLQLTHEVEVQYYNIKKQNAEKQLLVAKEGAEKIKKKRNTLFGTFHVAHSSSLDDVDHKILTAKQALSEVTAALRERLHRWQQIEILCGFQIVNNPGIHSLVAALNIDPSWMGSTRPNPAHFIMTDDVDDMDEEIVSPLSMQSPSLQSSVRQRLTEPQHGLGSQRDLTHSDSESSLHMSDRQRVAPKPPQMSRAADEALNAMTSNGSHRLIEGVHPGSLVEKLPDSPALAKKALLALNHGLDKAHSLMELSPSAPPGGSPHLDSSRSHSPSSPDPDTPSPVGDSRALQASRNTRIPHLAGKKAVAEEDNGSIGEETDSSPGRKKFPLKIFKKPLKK
T1 sequence (Q96D31 whole entry): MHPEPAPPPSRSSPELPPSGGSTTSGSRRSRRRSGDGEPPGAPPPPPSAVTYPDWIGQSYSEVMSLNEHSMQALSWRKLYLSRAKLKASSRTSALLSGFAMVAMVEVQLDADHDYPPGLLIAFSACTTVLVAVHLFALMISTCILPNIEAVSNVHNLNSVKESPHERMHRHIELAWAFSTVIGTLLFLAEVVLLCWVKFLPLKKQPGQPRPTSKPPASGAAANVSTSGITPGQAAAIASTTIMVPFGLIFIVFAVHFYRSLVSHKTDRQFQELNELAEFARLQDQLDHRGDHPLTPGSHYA

For `COc1ccc([C@H]2OC[C@H]3[C@@H]2CO[C@@H]3c2ccc(OC)c(OC)c2)cc1OC` [eudesmin], the inhibition at 100 µM in test [1] came to 24.7%.

For `COc1ccc([C@H]2OC[C@H]3[C@@H]2CO[C@@H]3c2cc(OC)c(OC)c(OC)c2)cc1OC` [magnolin], the inhibition at 100 µM in test [2] was 29.7%.
